Reference: ChEMBL document CHEMBL1201862, “PubChem BioAssay data set” (2004)
Active and inactive are the calls of the source. For most assays here, no stated cut-off is given here; in the data, actives have a measured EC50 and inactives only a lower limit.

Tests used:
[1] = NIH-3T3 fibroblast cytotoxicity, dose response, cytotoxicity control, cell-based, fluorescence, Alamar Blue, secondary assay (AID 2327); format: functional;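 further: NIH-3T3 mouse fibroblasts cultured with fluconazole at 8 µg/mL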
[2] = C. albicans growth with fluconazole, confirmation, fluorescence, retest (AID 2467); format: functional, cell-based
[3] = biological target: T1, Rac GTPase-activating protein 1 (Homo sapiens, UniProt Q9H0H5); experiment: MgcRacGAP GTPase-activating activity inhibitors, confirmation, biochemical, ADP Hunter fluorescence, primary and confirmatory (AID 624330); format: functional
T1 sequence (Q9H0H5 whole entry): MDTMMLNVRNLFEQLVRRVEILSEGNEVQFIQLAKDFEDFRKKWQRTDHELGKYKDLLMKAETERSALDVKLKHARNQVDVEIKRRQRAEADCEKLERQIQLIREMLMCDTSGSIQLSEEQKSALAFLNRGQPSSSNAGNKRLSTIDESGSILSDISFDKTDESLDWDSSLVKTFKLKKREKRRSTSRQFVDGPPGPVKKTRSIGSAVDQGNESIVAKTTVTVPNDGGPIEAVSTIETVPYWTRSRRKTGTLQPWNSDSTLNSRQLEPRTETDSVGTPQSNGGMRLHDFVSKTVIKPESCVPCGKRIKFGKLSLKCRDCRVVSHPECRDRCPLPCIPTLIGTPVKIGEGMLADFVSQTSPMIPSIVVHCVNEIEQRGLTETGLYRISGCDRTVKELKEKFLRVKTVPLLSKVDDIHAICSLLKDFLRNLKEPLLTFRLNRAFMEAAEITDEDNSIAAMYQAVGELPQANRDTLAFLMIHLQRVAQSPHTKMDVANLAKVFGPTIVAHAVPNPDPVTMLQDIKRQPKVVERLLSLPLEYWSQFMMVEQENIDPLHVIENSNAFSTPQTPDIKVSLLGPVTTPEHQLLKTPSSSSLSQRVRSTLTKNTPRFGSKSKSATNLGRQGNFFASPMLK

[4] = biological target: T2, RNA-binding protein pos-1 (Caenorhabditis elegans, UniProt G5EF15); experiment: inhibitors of POS-1/mex-3 RNA binding, dose response, biochemical, fluorescence polarization (AID 1964);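 further: purified POS-1 fused to maltose binding protein made in E. coli; potency of compounds blocking POS-1 binding to fluorescent RNA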
T2 sequence (G5EF15 whole entry): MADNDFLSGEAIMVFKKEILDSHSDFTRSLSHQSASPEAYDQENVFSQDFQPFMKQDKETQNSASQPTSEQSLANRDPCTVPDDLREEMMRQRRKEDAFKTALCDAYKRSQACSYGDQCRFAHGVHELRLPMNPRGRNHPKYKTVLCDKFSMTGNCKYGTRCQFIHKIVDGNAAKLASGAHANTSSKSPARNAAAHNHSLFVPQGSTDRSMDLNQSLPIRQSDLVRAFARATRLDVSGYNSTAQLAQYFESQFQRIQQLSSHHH

[5] = biological target: T3, Zinc finger protein mex-5 (Caenorhabditis elegans, UniProt Q9XUB2); experiment: MEX-5/TCR-2 RNA interaction inhibitors, dose response, biochemical, C. elegans, fluorescence polarization (AID 1960)
T3 sequence (Q9XUB2 whole entry): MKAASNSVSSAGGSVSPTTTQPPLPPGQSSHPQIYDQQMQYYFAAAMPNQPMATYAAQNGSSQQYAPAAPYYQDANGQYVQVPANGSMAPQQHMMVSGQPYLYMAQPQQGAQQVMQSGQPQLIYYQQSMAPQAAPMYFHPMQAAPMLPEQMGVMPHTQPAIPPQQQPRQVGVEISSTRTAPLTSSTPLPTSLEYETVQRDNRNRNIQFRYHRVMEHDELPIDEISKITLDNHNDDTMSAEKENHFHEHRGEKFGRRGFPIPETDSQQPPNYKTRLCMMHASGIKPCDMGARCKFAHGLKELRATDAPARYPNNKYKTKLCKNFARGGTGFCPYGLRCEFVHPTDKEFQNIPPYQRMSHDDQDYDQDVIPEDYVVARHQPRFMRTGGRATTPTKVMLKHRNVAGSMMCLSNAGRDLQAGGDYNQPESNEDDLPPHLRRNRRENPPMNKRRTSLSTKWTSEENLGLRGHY

[6] = Luminescence Cell-Based Dose Confirmation HTS to Identify Activators of 5'UTR Stem-Loop Driven Alpha-Synuclein mRNA Translation in H4 Neuroglioblastoma Cells. [Related pubchem assays: 1829 (Project Summary), 1814 (Primary HTS)]; format: functional
[7] = Luminescence Cell-Based Dose Response HTS to Identify Activators of Luciferase Translation or Activity in H4 […] Cells. [Related pubchem assays: 1829 (Project Summary), 1814 (Primary HTS)]; format: functional
H4 = experiment: Luminescence Cell-Based Dose Response HTS to Identify Activators of 5'UTR Stem-Loop Driven Prion Protein mRNA Translation in H4 Neuroglioblastoma Cells. [Related pubchem assays: 1829 (Project Summary), 1814 (Primary HTS)]; format: functional; conditions: Homo sapiens
[8] = microbe, parasite or virus in culture; format: functional; conditions: Mycobacterium tuberculosis
[9] = Luminescence Cell-Based Dose Retest to Confirm Inhibitors of Cancer Stem Cells. [Related pubchem assays (depositor defined):AID2717, AID2721]; format: functional; conditions: Homo sapiens
[10] = HEp-2 cell cytotoxicity, dose response, cytotoxicity control for RSV inhibitor project, HTS (AID 2410); format: functional; conditions: human respiratory syncytial virus
[11] = biological target: Luciferin 4-monooxygenase (Photinus pyralis, UniProt P08659); experiment: firefly luciferase enzyme inhibitors, dose response, biochemical, luminescence (AID 1891)
[12] = Luminescence Cell-Based Dose Confirmation HTS to Identify Inhibitors of Platelet Dense Granule Release. [Related pubchem assays: 1663 (Primary HTS), 1678 (Summary of Project)]; format: functional
[13] = biological target: FAD-linked sulfhydryl oxidase ALR (Homo sapiens, UniProt P55789); experiment: inhibitors of human ALR sulfhydryl oxidase, dose response, biochemical, H2O2 detection, luminescence, cherry-pick (AID 493248)
[14] = P. falciparum Dd2 growth inhibitors, dose response, SYBR Green, cherry-picked samples (AID 1159567); format: functional, cell-based

Luciferin 4-monooxygenase, sequence (P08659 whole entry): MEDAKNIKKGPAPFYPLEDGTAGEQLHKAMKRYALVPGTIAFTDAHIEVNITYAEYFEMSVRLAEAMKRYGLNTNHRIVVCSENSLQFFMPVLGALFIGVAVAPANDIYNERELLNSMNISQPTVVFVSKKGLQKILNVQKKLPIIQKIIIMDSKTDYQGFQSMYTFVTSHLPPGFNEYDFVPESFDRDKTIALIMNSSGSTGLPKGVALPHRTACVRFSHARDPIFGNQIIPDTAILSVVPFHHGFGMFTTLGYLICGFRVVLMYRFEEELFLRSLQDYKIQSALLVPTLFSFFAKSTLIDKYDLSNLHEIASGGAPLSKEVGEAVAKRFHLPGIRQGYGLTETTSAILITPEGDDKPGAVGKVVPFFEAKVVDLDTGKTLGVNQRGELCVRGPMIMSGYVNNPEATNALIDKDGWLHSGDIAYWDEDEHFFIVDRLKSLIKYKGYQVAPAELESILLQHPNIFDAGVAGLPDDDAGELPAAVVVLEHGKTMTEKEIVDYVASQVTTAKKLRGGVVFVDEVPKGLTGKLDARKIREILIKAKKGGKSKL
FAD-linked sulfhydryl oxidase ALR, sequence (P55789 whole entry): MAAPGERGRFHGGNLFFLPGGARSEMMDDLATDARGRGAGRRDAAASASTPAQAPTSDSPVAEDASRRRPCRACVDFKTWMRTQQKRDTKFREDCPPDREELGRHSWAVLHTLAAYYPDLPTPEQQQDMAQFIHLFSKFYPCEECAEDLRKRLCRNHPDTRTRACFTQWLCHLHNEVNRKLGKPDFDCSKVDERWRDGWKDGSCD

## COC(=O)c1cn(CC(=O)NC2CCCCC2)c2ccccc12
[1]
  EC50: > 150 µM (inactive)
[2]
  EC50: > 38 µM (not active)

## CCOCCCNCC(=O)NCC1CCCCC1
[3]
  IC50: 141 µM (active)

## COCCCNC(=O)CCC(=O)NNc1nc2ccccc2c2nc(C)nn12
[4]
  EC50: > 300 µM (not active)
[5]
  EC50: 1.13 µM (active)

## C=CCC1(CC=C)CCCN1C(=O)C1CCC(=O)N(CCc2ccc(OC)cc2)C1 (stereo unspecified)
[6]
  EC50: 6.13 µM (active)
[7]
  EC50: 10.4 µM (active)
H4
  EC50: 96 µM (active)

## Cc1cccc(-c2nc(C#N)c(N3CCCCC3)o2)c1
[6]
  EC50: 10 µM (active)
[7]
  EC50: 20 µM (active)
H4
  EC50: 3.9 µM (active)

## CC1=CC(C)(C)N2C(=O)C3(C(C#N)=C(N)OC4=C3C(=O)CC(C)(C)C4)c3cc(C)cc1c32 (stereo unspecified)
[4]
  EC50: > 300 µM (not active)
[5]
  EC50: > 300 µM (not active)

## Cc1cccc(NC(=O)c2nc[nH]c2C(=O)N[C@H](C)c2ccccc2)c1
[8]
  CC50: 36.9 µM (active)
[9]
  AC50: 6.42 µM (active)

## CC1CCCCC1NC(=O)/C=C/c1nc2ccccc2s1 (stereo unspecified)
[6]
  EC50: 15.9 µM (active)
[7]
  EC50: 17.2 µM (active)
H4
  EC50: 16.2 µM (active)

## CC1CCCCN1Cc1cccnc1 (stereo unspecified)
[3]
  IC50: 109 µM (active)

## N#Cc1ccc(OCC(O)CN2CCN(c3ncc(C(F)(F)F)cc3Cl)CC2)cc1 (stereo unspecified)
[8]
  CC50: > 40 µM (active)

## Cc1nc(NC(=O)CC(C)C)sc1-c1csc(Nc2ccc(Cl)cc2Cl)n1
[10]
  CC50: 22.9 µM (active)
[8]
  CC50: > 40 µM (active)
[9]
  AC50: 1.85 µM (active)

## O=C1c2ccccc2C(=O)N1CCN1CCc2ccccc21
[6]
  EC50: 13.7 µM (active)
[7]
  EC50: 17.9 µM (active)
H4
  EC50: 30.3 µM (active)

## CCN(CC)CC(=O)NN(Cc1ccccc1)c1ccccc1
[3]
  IC50: 108 µM (active)

## Cc1c([N+](=O)[O-])c(C(=O)Nc2ccc3c(c2)OCCO3)nn1C
[6]
  EC50: 17.1 µM (active)
[7]
  EC50: 11 µM (active)
H4
  EC50: 9.3 µM (active)

## CO[C@H]1O[C@H](CBr)[C@@H](OC(=O)c2ccccc2)[C@H](O)[C@H]1O
[4]
  EC50: > 300 µM (not active)
[5]
  EC50: > 300 µM (not active)

## COc1cc(C2CC(=O)Nc3[nH]nc(-c4ccccc4)c32)cc(OC)c1OC (stereo unspecified)
[6]
  EC50: > 120 µM (not active)
[7]
  EC50: > 120 µM (not active)
H4
  EC50: > 120 µM (not active)

## CCOc1ccc2nc(N=C(N)N=C(S)Nc3cccc(C)c3)nc(C)c2c1
[8]
  CC50: > 40 µM (active)

## CC(C)c1ccc(N(C(=O)c2ccco2)C(C(=O)NC2CCCC2)c2ccncc2)cc1 (stereo unspecified)
[6]
  EC50: 22.1 µM (active)
[7]
  EC50: 50.3 µM (active)
H4
  EC50: > 120 µM (not active)

## Cc1nc(-c2nc(-c3c(C(=O)NNC(=O)c4ccc(Cl)cc4)noc3C)cs2)cs1
[8]
  CC50: > 40 µM (active)

## O=C(Nc1cccc(F)c1)c1ccc2ncsc2c1
[1]
  EC50: > 150 µM (inactive)
[2]
  EC50: 3.17 µM (active)

## O=C1C2=C(SCCS2)C(=O)N1c1ccccc1
[4]
  EC50: > 300 µM (not active)
[5]
  EC50: > 300 µM (not active)

## N#Cc1ccc(-c2ccc(OCC3CNC(=O)O3)cc2)cc1 (stereo unspecified)
[6]
  EC50: 0.187 µM (active)
[7]
  EC50: 36.9 µM (active)
H4
  EC50: 11.3 µM (active)

## Cc1nn(-c2ccc(Cl)nn2)c(=O)c2ccccc12
[6]
  EC50: 12.5 µM (active)
[7]
  EC50: 14.4 µM (active)
H4
  EC50: 16.4 µM (active)

## Cc1[n-][o+]nc1OCCNCCNc1ccc([N+](=O)[O-])c2cccnc12
[4]
  EC50: 120 µM (active)
[5]
  EC50: 18.6 µM (active)

## O=C(/C=C/c1ccccc1)NNc1ccc(Cl)cc1
[1]
  EC50: 28.1 µM (inconclusive)
[2]
  EC50: 2.71 µM (active)
[9]
  AC50: 5.85 µM (active)

## Oc1ccc(Cl)cc1C1=NNC(c2cc(Br)cc3c2OCOC3)C1 (stereo unspecified)
[1]
  EC50: > 160 µM (inactive)
[2]
  EC50: > 38 µM (not active)

## COc1cccc(C(=O)Nc2cc3c(cc2N2CCCC2)n(C)c(=O)n3C)c1
[3]
  IC50: 156 µM (active)

## Nc1ccc2ccc(O)cc2c1
[3]
  IC50: 36.7 µM (active)

## CC(=O)N1CCN(c2ccc(NCc3ccco3)cc2)CC1
[3]
  IC50: 14.6 µM (active)

## NC(=S)n1[nH]c(-c2ccccc2)c(N=Nc2ccccc2C(=O)N2CCOCC2)c1=O
[1]
  EC50: > 150 µM (inactive)
[2]
  EC50: 7.72 µM (active)

## CCc1ccc(N2CC(C(=O)N/N=C/c3cc([N+](=O)[O-])ccc3O)CC2=O)cc1 (stereo unspecified)
[1]
  EC50: 23.1 µM (active)
[2]
  EC50: > 38 µM (not active)

## CC(C)=C(NC(=O)c1ccccc1)C(=O)N/N=C/c1ccc(O)cc1
[6]
  EC50: 11.3 µM (active)
[7]
  EC50: 11.8 µM (active)
H4
  EC50: 8.89 µM (active)
[11]
  EC50: > 112 µM (not active)
[12]
  EC50: > 112 µM (not active)
[3]
  IC50: 102 µM (active)

## O=C(CCN1CCN(C(c2ccccc2)c2ccccc2)CC1)N/N=C/c1ccc(O)cc1
[13]
  AC50: 1.6 µM (active)
[3]
  IC50: 88.2 µM (active)

## Cc1cccc(OCC(=O)NC(C)C(=O)N/N=C/c2c(OCc3ccccc3)ccc3ccccc23)c1 (stereo unspecified)
[6]
  EC50: 9.47 µM (active)
[7]
  EC50: 39.7 µM (active)
H4
  EC50: 33.5 µM (active)

## CN1C[C@H]2[C@@H](c3ccccc31)[C@H](CO)N2Cc1ccccc1F
[14]
  AC50: 8.06 µM (active)

## O=C(c1ccccc1)N1CC[C@@H]2[C@@H](CO)Nc3ccc(-c4ccc(F)cc4)cc3[C@@H]21
[14]
  AC50: 5.45 µM (active)

## CO[C@H]1CN(C)C(=O)c2cc(NC(=O)c3ccc(F)cc3)ccc2OC[C@H](C)N(C(=O)c2ccc(F)cc2)C[C@H]1C
[14]
  AC50: 6.03 µM (active)

## COc1ccccc1CNC(=O)C[C@H]1C[C@@H]2c3cc(NC(=O)Nc4ccc(C(F)(F)F)cc4)ccc3O[C@@H]2[C@@H](CO)O1
[14]
  AC50: 8.47 µM (active)

## CN(C)c1ccc2c(c1)[C@@H]1C[C@@H](CC(=O)N3CCc4ccccc4C3)O[C@@H](CO)[C@@H]1O2
[14]
  AC50: 9.12 µM (active)

## C[C@H]1CN([C@@H](C)CO)S(=O)(=O)c2ccc(C#Cc3ccccc3)cc2O[C@@H]1CN(C)C(=O)C1CC1
[14]
  AC50: 5.43 µM (active)
